Measurements from patent EP3319638B1, “CINEOL-CONTAINING COMPOSITION FOR THE TREATMENT OF TUMOURS AND/OR CANCERS” (Maria Clementine Martin Klosterfrau Vertriebsgesellschaft …, priority 2015, dated 2017).
Entries after “also recorded” stand apart in the source; their conditions may differ.

How the values were obtained:
Wnt11 [1] = test: RT2 EMT Profiler PCR array: Wnt11 mRNA level in HNSCC cell lines; format: cell-based, human; conditions: 100 µM, HNSCC cell lines (Fig. 4A)
Excerpt: PCR-Test zur humanen epithelial-mesenchymalen Transition (EMT) Mit dem "Human Epithelial to Mesenchymal Transition (EMT) RT^2 Profiler™ PCR Array" wird die Expression von 84 Schlüsselgenen, welche ihre Expression während dieses Prozesses verändern oder die Expression von sich verändernden Genen regulieren, festgestellt. Der Test umfasst für Zelloberflächenrezeptoren, extrazelluläre Matrix und das Zytoskelett kodierende Gene, Gene, welche Zelladhäsion, Migration, Motilität und Morphogenese steuern; sowie Gene für Signaltransduktion und Transkriptionsfaktoren, welche die EMT sowie die damit assoziierten Prozesse bedingen.
Weiterhin werden im Hinblick auf die Wnt/β-Catenin-Signalgebung aufgrund ihrer Involvierung in die Regulation der epithelial-mesenchymalen Transition (EMT) die transkriptionellen Profile verschiedener Gene, welche in Zusammenhang mit EMT stehen, in Reaktion auf 1,8-Cineol untersucht. Dafür wird der PCR-basierte "RT^2 EMT Profiler" eingesetzt, welcher die umfassende Analyse von 84 verschiedenen, in Zusammenhang mit EMT stehenden Genen erlaubt.

[2] = system: GSK-3α/β (Tyrosin-279/-216); test: Western blot: phospho-GSK-3α/β at Tyr-279/-216 in HNSCC cell lines; format: cell-based, human; conditions: 100 µM, HNSCC cell lines (Fig. 1C)
Method: (§1) Die im Rahmen der vorliegenden Erfindung untersuchten adhärenten humanen Kopf-Hals-Plattenepithel-Karzinom-Zelllinien (UT-SCC16A, UT-SCC-16B, UT-SCC-60A und UT-SCC-60B) werden in "Dulbecco's Modifiziertem Eagle's Medium" (DMEM, 4,5 g/l D-Glucose und L-Glutamin), welches mit 10 % fötalem Rinderserum (FBS) (beide Life Technologies, Carlsbad, CA, USA), 1 % Natriumpyruvat (PAN-Biotech, Aidenbach, Deutschland) und 1 % Antibiotika (10.000 U/ml Penicillin, 10.000 µg/ml Streptomycin) (Biochrom, Berlin, Deutschland) supplementiert ist, bei 37 °C unter 5 % CO2 und 95 % LuftAtmosphäre gelagert.
(§2) Anti-Phospho-GSK-3α/β-Antikörper (Serin-21/-9) (#9331) und Anti-GAPDH-Antikörper (#2118) werden über Cell Signaling Technology (Danvers, MA, USA) bezogen. Beide Antikörper werden in einer […]-Verdünnung in TBS mit 3 % BSA (PAA Laboraties, Pasching, Österreich) verwendet. Anti-Phospho-GSK-3a/β-Antikörper (Y279/Y216) (#ab6847) werden von Abcam (Cambridge, UK) erhalten und in einer 1 : 1.000-Verdünnung in TBS mit 3 % BSA verwendet. Der gegen aktives-β-Catenin gerichtete Antikörper (#05-665) wird über Merck Milipore (Billerica, MA, USA) bezogen und in einer Verdünnung von 1 : 2.000 in TBS und 3 % Milchpulver (Carl Roth, Karlsruhe, Deutschland) verwendet. […]

[3] = system: phosphoryliertem GSK-3α/β (Serin-9/-21); test: Western blot: phosphorylation level of GSK-3α/β at Ser-9/-21 in HNSCC cell lines; format: cell-based, human; conditions: 100 µM, HNSCC cell lines (Fig. 1B)
Method: as §1, §2

Fibroblastenzelllinie = test: MTT assay: vitality and proliferation of a fibroblast cell line, 250 h culture; format: cell-based
Excerpt: (§3) Die Zellproliferation wird mittels eines quantitativen kolorimetrischen 3-(4,5-Dimethylthiazol-2-yl)-2,5-diphenyltetrazoliumbromid-basierten (MTT) Zelltests bestimmt. Dieser Test bestimmt die Anzahl der lebensfähigen Zellen auf Basis der mitochondrialen Konversion von MTT.
(§4) Dazu werden 5.000 Zellen in jedes Well einer 96-Well-Platte verteilt. Nach 24 Stunden Kultivierung werden vier verschiedene Konzentrationen von 5-Fluoruracil oder Cisplatin zu den Kulturen hinzugefügt oder die Zellen werden mit drei Dosen bestrahlt. Nach 48 Stunden werden in jedes Well 10 µl MTT-Farbstoff (5 mg/ml) zugefügt. Nach zwei Stunden Inkubation mit MTT wurden die Kristalle gelöst und vorsichtig für 24 Stunden bei Raumtemperatur geschüttelt. Mithilfe eines Multi-Well-ELISA-Lesegeräts wird die Absorption der reduzierten Formazan-Produkte in Kontrolle und Proben-Wells bei einer Welle von 570 nm und 690 nm bestimmt. Alle Wachstumsproben des MTT-Tests werden in dreifacher Ausführung ausgeführt.
(§5) Es werden weiterführende Untersuchungen durchgeführt zur Analyse des Einflusses von Cineol auf die Vitalität und Proliferation verschiedener permanenter Zelllinien. Hierzu werden einerseits die zwei HNSCC-Zelllinien und des Weiteren eine Fibroblastenzelllinie verwendet. Diese werden über einen Zeitraum von 250 Stunden mit verschiedenen Cineol-Konzentrationen kultiviert (1 mM bis 10 mM) und die Vitalität der Zellen wird jeweils mittels eines MTT-Assays untersucht.

HNSCC-Zellen = test: MTT test: proliferation and viability of HNSCC cells, 288 h incubation; format: cell-based, human; conditions: 700 µM, MTT (Fig. 5)
Excerpt: as §3, §4
Dosisabhängige Inhibition der Proliferation von HNSCC durch 1,8-Cineol Um zu bestimmen, ob die Behandlung mit 1,8-Cineol zu einer Inhibition der zellulären Lebensfähigkeit von HNSCC führt, werden MTT-Tests durchgeführt. Zu diesem Zweck werden die Zellen für 288 Stunden in 300 µM bzw. 700 µM Cineol inkubiert.

Akt = test: Western blot: Akt expression in HNSCC cell lines; format: cell-based, human; conditions: 100 µM, HNSCC cell lines (Fig. 3)
Method: as §1
(§6) Die Zellen werden zweimal in eiskaltem PBS gewaschen und anschließend in RIPA-Puffer (Cell Signaling Technology, Danvers, MA, USA) mit Aprotinin, Pepstatin A, Protease Inhibitor Cocktail und Phenylmethansulfonylfluorid (Sigma-Aldrich, St. Louis, MO, USA) für 1,5 Stunden lysiert. Durch Zentrifugation (13.000 rpm, 4 °C, 10 Minuten) werden Zelltrümmer entfernt. Die Proteinkonzentration wird mittels des Bradford-Tests mit einfach konzentriertem Quick StartTM Dye Reagent (Bio-Rad Laboratories, Hercules, CA, USA) bestimmt. Es wird vierfach konzentrierter SDS-Probenpuffer hinzugefügt, und die Proben werden für 5 Minuten bei 95 °C denaturiert. Äquivalente Proteinmengen (30 µg) werden mittels SDS-PAGE in einem 10 % Polyacrylamidgel aufgetrennt und mittels Immunoblot auf Nitrocellulosemembranen übertragen. […]

P-Akt (Threonin-308) = test: Western blot: Akt phosphorylation at Thr-308 in HNSCC cell lines; format: cell-based, human; conditions: 100 µM, HNSCC cell lines (Fig. 3)
Method: as §1, §6

[4] = system: Phospho-GSK-3 (Serin-9/-21); test: Immunohistochemistry: subcellular (endolysosomal) localisation of phospho-GSK-3; format: cell-based, human; conditions: 100 µM, versus control medium (Fig. 2)
Method: Zur Detektion von […] innerhalb der Tumorzellen wird eine immunohistochemische Methode eingesetzt. Die Zellen werden 24 Stunden vor der Behandlung mit 100 µM Cineol in 4-Well-Kammerobjektträgern (Sarstadt AG, Numbrecht, Deutschland) überführt. Nach der Inkubation wurde das Medium entfernt und die Zellen wurden zweimal in PBS gewaschen. Zur intrazellulären Färbung wurden die Zellen mit 0,1 % Triton-X-100 (Sigma-Aldrich Chemie GmbH, Steinheim) in PBS fixiert. Der spezifische primäre Antikörper Anti-Phospho-GSK-3α/β (Serin-21/-9) (#9331) (Cell Signaling, Danvers, MA, USA) wird mit einem Antikörper-Verdünnungspuffer, welcher Blocking-Puffer (DCS LabLine, DCS, Hamburg, Deutschland) enthält, auf 1 : 50 verdünnt und in einer luftbefeuchteten Kammer für 1 Stunde bei Raumtemperatur (RT) inkubiert. Nach Waschen mit PBS wird der zweite Antikörper Ziege-anti-Maus FITC (Jackson ImmunoResearch Laboratories, West Grove, USA) in einer Verdünnung von 1 : 100 für 45 Minuten inkubiert. Die Zellen werden dreimal mit PBS gespült. Die Zellkerne werden für 1 Minute unter Einsatz von DAPI (1 µg/ml, Roche Diagnostics, Mannheim, Deutschland) gefärbt. Die Proben werden dreimal für 5 Minuten mit PBS gespült und anschließend in Fluoromount G (Southern Biotechnologies Associates, Birmingham, Alabama, USA) eingebettet. […]

Wnt11 [5] = test: Western blot: Wnt11 protein expression in HNSCC cell lines; format: cell-based, human
Method: Die Zellen werden zweimal in eiskaltem PBS gewaschen und anschließend in RIPA-Puffer (Cell Signaling Technology, Danvers, MA, USA) mit Aprotinin, Pepstatin A, Protease Inhibitor Cocktail und Phenylmethansulfonylfluorid (Sigma-Aldrich, St. Louis, MO, USA) für 1,5 Stunden lysiert. Durch Zentrifugation (13.000 rpm, 4 °C, 10 Minuten) werden Zelltrümmer entfernt. Die Proteinkonzentration wird mittels des Bradford-Tests mit einfach konzentriertem Quick StartTM Dye Reagent (Bio-Rad Laboratories, Hercules, CA, USA) bestimmt. Es wird vierfach konzentrierter SDS-Probenpuffer hinzugefügt, und die Proben werden für 5 Minuten bei 95 °C denaturiert. Äquivalente Proteinmengen (30 µg) werden mittels SDS-PAGE in einem 10 % Polyacrylamidgel aufgetrennt und mittels Immunoblot auf Nitrocellulosemembranen übertragen. Für die Proteinextraktion aus Geweben werden die Gewebe zunächst in 500 µl RIPA-Puffer mit Protease-Inhibitoren unter Einsatz des TissueLyser LT (Qiagen, Hilden, Deutschland) homogenisiert, anschließend inkubiert und wie zuvor beschrieben zentrifugiert.
Die Membranen werden mit TBS, enthaltend 3 % BSA oder 3 % Milchpulver, für 1 Stunde bei Raumtemperatur geblockt und anschließend mit dem primären Antikörper über Nacht bei 4 °C inkubiert. Nach einem Waschschritt mit TBS werden die Membranen mit dem speziesspezifischen sekundären Antikörper für 1 Stunde bei Raumtemperatur inkubiert. Die Proteinbanden werden unter Einsatz von Amersham™ ECL™ Primer Western Blotting Detection Reagent (GE Healthcare, Chalfont St Giles, Buckinghamshire, UK) und Fusion-FX7 sowie der korrespondierenden Software Fusion Bio-1D V12.14 (Vilber-Lourmat, Eberhardzell, Deutschland) nach ausgiebigem Waschen visualisiert. Die Nitrozellulosemembranen werden über Nacht bei 4 °C mit einem GAPDH-Antikörper inkubiert, um die Beladung jeder Spur zu bestimmen. Die Membranen werden nochmals gewaschen und mit dem sekundären Antikörper und ECL Detektionsreagenz inkubiert. […]

aktivem β-Catenin = test: Western blot of whole-cell protein: expression level of active β-catenin in HNSCC cell lines; format: cell-based, human; conditions: 24 h incubation, 100 µM, versus medium control (Fig. 1A)
Method: as §1, §2

HNSCC-Zelllinien = test: MTT assay: vitality and proliferation of HNSCC cell lines, 250 h culture; format: cell-based, human
Excerpt: as §3, §4, §5

[6] = from a concentration of 1mM to 2mM

For `CC12CCC(CC1)C(C)(C)O2` [1,8-Cineol, 1,3,3-Trimethyl-2-oxabicyclo[2.2.2]octan], which “mRNA-Level von Wnt11” value (Wnt11 [1]) is on record?
The value was “starken Rückgang der mRNA-Level von Wnt11”.

And the “Expressionslevel von GSK-3α/β (Tyrosin-279/-216)” value [2]?
The value was “nicht nennenswert beeinflusst”.

What about the “Level von bzw. Gehalt an phosphoryliertem GSK-3α/β (Serin-9/-21)” value [3] of the same compound?
The value was “verringerten Level von bzw. Gehalt an phosphoryliertem GSK-3α/β (Serin-9/-21)”.

What about the “Einfluss auf die Progression und Vitalität von Fibroblasten” value (Fibroblastenzelllinie; 1 mM to 10 mM) of the same compound?
The value was “inhibierender Einfluss”.

What about the “zytotoxische Wirkung” value (Fibroblastenzelllinie; 10mM) of the same compound?
The value was “deutlich zytotoxische Wirkung”.

What about the “proliferationshemmende Wirkung” value (Fibroblastenzelllinie; [6]) of the same compound?
Its value is “starke proliferationshemmende Wirkung”.

And the “Proliferation und zelluläre Lebensfähigkeit von HNSCC-Zellen” value (HNSCC-Zellen)?
Its value is “stark verringerte zelluläre Lebensfähigkeit”.

What about the “Proliferation und zelluläre Lebensfähigkeit von HNSCC-Zellen” value (HNSCC-Zellen; listed as Cineol) of the same compound?
Its value is “starker Rückgang der Proliferation und zellulären Lebensfähigkeit”.

And the “Expression von Akt” value (Akt)?
The value was “Weder die Expression noch die Phosphorylierung von Threonin-308 von Akt wird in den analysierten Zelllinien nennenswert beeinflusst”.

What about the “Phosphorylierung von Threonin-308 von Akt” value (P-Akt (Threonin-308)) of the same compound?
The value was “Weder die Expression noch die Phosphorylierung von Threonin-308 von Akt wird in den analysierten Zelllinien nennenswert beeinflusst”.

And the “endolysosomale Lokalisation von GSK-3” value [4]?
The value was “Rückgang der endolysosomalen Lokalisation von Phospho-GSK-3 (Serin-9/-21); also recorded: verringerte endolysosomale Lokalisation von GSK-3”.

And the “Proteinexpression von Wnt11” value (Wnt11 [5]; cell lines 16A, SCC154, 60B and Carey24, 24 h, 1mM)?
Its value is “starke Herunterregulation von Wnt11”.

What about the “Wnt11 Proteinexpression” value (Wnt11 [5]; cell lines 16B and 60A, 24 h, 1mM) of the same compound?
The value was “Rückgang der Wnt11 Proteinexpression, auch wenn dieser geringer ist”.

What about the “Proteinexpression von Wnt11” value (Wnt11 [5]; dose dependence, six HNSCC cell lines (Fig. 4B)) of the same compound?
Its value is “dosisabhängig in Reaktion auf 1,8-Cineol abnimmt”.

What about the “Expressionslevel von aktivem β-Catenin” value (aktivem β-Catenin) of the same compound?
The value was “starke Abnahme von aktivem β-Catenin”.

What about the “Einfluss auf die Progression und Vitalität von HNSCC” value (HNSCC-Zelllinien; 1 mM to 10 mM) of the same compound?
The value was “inhibierender Einfluss”.

And the “zytotoxische Wirkung” value (HNSCC-Zelllinien; 10mM)?
Its value is “deutlich zytotoxische Wirkung”.

What about the “proliferationshemmende Wirkung” value (HNSCC-Zelllinien; [6]) of the same compound?
The value was “starke proliferationshemmende Wirkung”.
